The text below walks through data of ChEMBL document CHEMBL4400508, “Targeted Endocrine Therapy: Design, Synthesis, and Proof-of-Principle of 17β-Hydroxysteroid Dehydrogenase Type 2 Inhibitors in Bone Fracture Healing” (J Med Chem, 2019).

One series can be described thus: in vitro. The note with it: human, s9.
For series [1], the target named is T1, Estradiol 17-beta-dehydrogenase 2 (Mus musculus, UniProt P51658).
T1 sequence (P51658 whole entry): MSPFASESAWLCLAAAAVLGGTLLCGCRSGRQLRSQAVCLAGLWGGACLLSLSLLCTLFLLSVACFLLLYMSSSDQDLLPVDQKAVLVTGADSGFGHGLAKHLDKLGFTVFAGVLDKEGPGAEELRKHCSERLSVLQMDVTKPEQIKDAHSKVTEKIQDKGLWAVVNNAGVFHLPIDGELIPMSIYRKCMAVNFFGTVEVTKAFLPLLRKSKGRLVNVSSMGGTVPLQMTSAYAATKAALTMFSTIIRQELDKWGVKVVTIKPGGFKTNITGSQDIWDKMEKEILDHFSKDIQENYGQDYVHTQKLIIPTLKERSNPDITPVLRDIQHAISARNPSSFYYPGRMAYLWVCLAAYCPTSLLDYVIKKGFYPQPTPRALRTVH
Kind of series: biochemical. Type of series: tissue-based, Liver.
Description: Inhibition of mouse liver homogenate 17beta-HSD2 using [3H]-E2 as substrate in presence of NAD+ by radio-HPLC analysis

Series [2] deals with T2, 17-beta-hydroxysteroid dehydrogenase type 1 (Homo sapiens, UniProt P14061).
T2 sequence (P14061 whole entry): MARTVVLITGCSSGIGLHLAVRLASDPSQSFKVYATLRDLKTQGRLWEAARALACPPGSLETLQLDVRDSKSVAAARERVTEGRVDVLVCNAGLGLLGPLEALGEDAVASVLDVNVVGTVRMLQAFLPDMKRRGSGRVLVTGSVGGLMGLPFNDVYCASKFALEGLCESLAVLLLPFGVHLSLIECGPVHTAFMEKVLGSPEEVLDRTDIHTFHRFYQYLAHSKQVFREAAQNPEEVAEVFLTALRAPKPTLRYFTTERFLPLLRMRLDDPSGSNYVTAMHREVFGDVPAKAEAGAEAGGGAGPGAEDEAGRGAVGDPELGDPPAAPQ
Description: Inhibition of human placental cytosolic fraction 17beta-HSD1 using [3H]-E1 as substrate in presence of NAD+ by radio-HPLC analysis

Series [3] addresses T3, 17-beta-hydroxysteroid dehydrogenase type 1 (Mus musculus, UniProt P51656).
T3 sequence (P51656 whole entry): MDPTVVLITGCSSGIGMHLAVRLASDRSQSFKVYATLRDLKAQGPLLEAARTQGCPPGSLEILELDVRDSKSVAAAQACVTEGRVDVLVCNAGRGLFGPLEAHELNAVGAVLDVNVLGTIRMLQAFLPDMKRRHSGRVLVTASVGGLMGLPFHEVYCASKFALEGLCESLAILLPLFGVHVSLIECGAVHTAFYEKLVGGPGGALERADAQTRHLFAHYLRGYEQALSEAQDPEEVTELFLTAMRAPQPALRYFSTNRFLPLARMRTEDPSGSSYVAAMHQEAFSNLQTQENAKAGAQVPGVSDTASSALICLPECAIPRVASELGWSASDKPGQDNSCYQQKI
The format is cell-based, HEK293.
Description: Inhibition of recombinant mouse 17beta-HSD1 expressed in HEK293 cells using [3H]-E1 as substrate in presence of NAD+ by radio-HPLC analysis

The target of series [4] is T4, AhR (aryl hydrocarbon receptor); CYP1 induction (Homo sapiens, UniProt P35869).
T4 sequence (P35869 whole entry): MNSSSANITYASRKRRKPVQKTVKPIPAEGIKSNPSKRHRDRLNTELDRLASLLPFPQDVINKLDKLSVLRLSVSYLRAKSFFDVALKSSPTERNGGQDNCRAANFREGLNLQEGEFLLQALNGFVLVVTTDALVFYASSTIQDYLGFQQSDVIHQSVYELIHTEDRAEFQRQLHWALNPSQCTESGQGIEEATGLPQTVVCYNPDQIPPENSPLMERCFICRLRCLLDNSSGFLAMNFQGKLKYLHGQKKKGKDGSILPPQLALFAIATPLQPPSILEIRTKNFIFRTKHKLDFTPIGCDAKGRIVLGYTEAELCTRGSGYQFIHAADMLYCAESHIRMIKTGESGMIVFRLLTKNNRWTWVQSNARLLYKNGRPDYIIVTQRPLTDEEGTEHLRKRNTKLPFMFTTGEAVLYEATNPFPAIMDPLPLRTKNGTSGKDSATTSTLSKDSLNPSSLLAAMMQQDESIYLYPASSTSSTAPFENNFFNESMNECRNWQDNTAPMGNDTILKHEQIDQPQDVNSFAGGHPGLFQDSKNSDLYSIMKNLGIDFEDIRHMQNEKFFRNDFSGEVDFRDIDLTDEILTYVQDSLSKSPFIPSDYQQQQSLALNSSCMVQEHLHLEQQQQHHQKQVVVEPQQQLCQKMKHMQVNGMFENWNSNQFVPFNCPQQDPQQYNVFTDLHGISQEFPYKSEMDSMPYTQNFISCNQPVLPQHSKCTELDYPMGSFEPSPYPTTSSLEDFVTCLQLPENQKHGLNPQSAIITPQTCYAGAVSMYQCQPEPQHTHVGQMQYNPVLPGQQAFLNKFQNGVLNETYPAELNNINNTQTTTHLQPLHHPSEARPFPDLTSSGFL
The series can be described thus: in vitro. The note with it: hepg2.
Description: Agonist activity at AhR in human HepG2 assessed as induction of CYP1 at 3.16 uM relative to control

The target of series [5] is T5, PXR (NR1I2); CYP3 induction (Homo sapiens, UniProt O75469).
T5 sequence (O75469 whole entry): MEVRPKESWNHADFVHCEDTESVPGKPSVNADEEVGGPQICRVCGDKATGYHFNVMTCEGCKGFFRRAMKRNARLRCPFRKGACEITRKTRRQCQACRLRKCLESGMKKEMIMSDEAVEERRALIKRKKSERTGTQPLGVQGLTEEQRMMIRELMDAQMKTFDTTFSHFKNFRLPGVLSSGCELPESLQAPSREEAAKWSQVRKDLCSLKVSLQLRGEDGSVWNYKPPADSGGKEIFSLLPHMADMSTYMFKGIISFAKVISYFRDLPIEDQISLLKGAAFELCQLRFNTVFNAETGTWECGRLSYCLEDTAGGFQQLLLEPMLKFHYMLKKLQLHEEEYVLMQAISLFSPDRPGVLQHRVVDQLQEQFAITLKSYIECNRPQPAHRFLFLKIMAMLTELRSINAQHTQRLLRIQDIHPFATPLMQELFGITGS
Kind of series: in vitro.
Description: Agonist activity at recombinant human PXR assessed as induction of CYP3 at 3.16 uM after 60 mins relative to control

The target in series [6] is T6, constitutive androstane receptor (NR1I3); CYP2 induction (Homo sapiens, UniProt Q14994).
T6 sequence (Q14994 whole entry): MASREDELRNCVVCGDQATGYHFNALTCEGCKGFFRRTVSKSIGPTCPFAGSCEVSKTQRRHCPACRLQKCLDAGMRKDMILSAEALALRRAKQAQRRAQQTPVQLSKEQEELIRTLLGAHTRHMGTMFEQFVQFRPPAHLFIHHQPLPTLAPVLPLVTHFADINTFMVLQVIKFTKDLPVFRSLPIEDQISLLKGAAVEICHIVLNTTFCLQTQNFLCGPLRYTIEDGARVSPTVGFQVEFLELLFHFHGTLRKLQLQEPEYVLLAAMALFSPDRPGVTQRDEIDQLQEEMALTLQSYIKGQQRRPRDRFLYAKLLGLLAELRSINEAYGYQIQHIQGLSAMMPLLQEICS
The series can be described thus: in vitro.
Description: Agonist activity at recombinant human constitutive androstane receptor assessed as induction of CYP2 at 3.16 uM relative to control

One may read the half-life as the time needed for the level to fall by half in the phase considered. Low values mean rapid decline, high ones slow decline. A word on the IC50: it is the concentration that gives 50% inhibition.

SMILES strings stand for the structures. Where only a bound is given, the exact number is not on record here.

Regarding `O=C(c1ccc(-c2cccc(NS(=O)(=O)c3ccccc3C(F)(F)F)c2)s1)c1cc(F)c(F)c(O)c1F`, the half-life in the series “in vitro” was found to be 51 min.

In series [1], `O=C(c1ccc(-c2cccc(NS(=O)(=O)c3ccc(F)cc3)c2)s1)c1cc(F)c(F)c(O)c1F` showed a 50% inhibitory concentration (IC50) of 27.3 nM. For the same compound, in the series “in vitro”, the half-life came to 32 min.

For the compound `Cc1c(O)cccc1C(=O)c1ccc(-c2cccc(NS(=O)(=O)c3ccccc3)c2)s1`, half-maximal inhibition in series [2] (IC50) required 306 nM.

With `O=C(c1ccc(-c2cccc(NS(=O)(=O)c3ccccc3OC(F)(F)F)c2)s1)c1cc(F)c(F)c(O)c1F`, the concentration for half-maximal inhibition (IC50) in series [3] came to 1760 nM. Moreover, the activity at 3.16 µM in series [4] and in series [6] was less than 5% throughout. Moreover, the activity at 1 h, 3.16 µM in series [5] was less than 5%. The half-life in “in vitro” amounted to 60 min.

For the compound `O=C(c1ccc(-c2cccc(NS(=O)(=O)c3ccccc3)c2)s1)c1c(F)ccc(O)c1F`, the concentration for half-maximal inhibition (IC50) is 1.4 nM in series [2] and 30.5 nM in series [1].

Regarding `O=C(c1ccc(-c2cccc(NS(=O)(=O)c3ccc(Cl)cc3)c2)s1)c1cc(F)c(F)c(O)c1F`, the figures for the half-maximal inhibitory concentration (IC50) in series [2] and in series [1] were 0.7 nM and 6.2 nM, respectively. Moreover, in the series “in vitro”, the half-life was found to be 40 min.

In series [2], `O=C(c1ccc(Cl)c(O)c1)c1ccc(-c2cccc(NS(=O)(=O)c3ccccc3)c2)s1` registered an IC50 of 8.2 nM.

For `O=C(c1ccc(-c2cccc(NS(=O)(=O)c3ccccc3)c2)s1)c1c(F)ccc(O)c1Cl`, the figures for the 50% inhibitory concentration (IC50) in series [2] and in series [1] were 15.6 nM and 2.7 nM, respectively. The compound further yielded a half-life in the series “in vitro” of less than 5 min.

In the case of `Cc1ccc(S(=O)(=O)Nc2cccc(-c3ccc(C(=O)c4cc(F)c(F)c(O)c4F)s3)c2)cc1`, the IC50 in series [2] is 0.1 nM; in series [1], 9.9 nM. For the same compound, the half-life in “in vitro” was 32 min.

Turning to `O=C(c1ccc(-c2cccc(NS(=O)(=O)c3ccccc3)c2)s1)c1cccc(O)c1Cl`, the half-maximal inhibitory concentration (IC50) in series [2] came out at 20.3 nM; in series [1], 2.7 nM. For the same compound, the half-life in the series “in vitro” is less than 5 min.

As for `O=C(c1ccc(-c2cccc(NS(=O)(=O)c3cccc(Cl)c3)c2)s1)c1cc(F)c(F)c(O)c1F`, the IC50 in series [2] is 0.8 nM; in series [1], 5.6 nM. The same compound returned a half-life in “in vitro” of 42 min.

The compound `O=C(c1ccc(-c2cccc(NS(=O)(=O)c3ccccc3)c2)s1)c1c(Cl)ccc(O)c1F` showed a half-inhibitory concentration (IC50) in series [2] of 1.7 nM.

Regarding `Cc1cccc(S(=O)(=O)Nc2cccc(-c3ccc(C(=O)c4cc(F)c(F)c(O)c4F)s3)c2)c1`, the IC50 in series [2] was determined as 0.1 nM; in series [1], 7.9 nM. This compound also registered a half-life in “in vitro” of 28 min.
